What was measured:
[1] = test system: TFEB; assay: High content screen measuring TFEB nuclear accumulation (TFEB nuclear/cytosol ratio) in BEAS-2B cells stably expressing TFEB-EGFP; assay type: cell-based, human; conditions: 18 hours incubation
Procedure: FIG. 3. High content screen assay (384 well) measuring TFEB nuclear accumulation. Approximately 2500 primary and immortalized human bronchial epithelial cells (BEAS-2B) stably expressing TFEB-EGFP in 25 μL of HITEs media with 10% FBS were dispensed into 384 well plate (Black with glass bottom) and incubated for 8 hours. Compound serial dilution (DMEM low glucose media with 2% FBS, 25 μL volume) were prepared using a robotic liquid hander. Compound solutions were then added to the cell plate and incubated for 18 hours. Cells were then fixed with 4% PFA followed by DAPI staining. TFEB localization was imaged on the GFP channel along with the DAPI signal using a Cytation 5 high content imager. Images were processed through Biotek Gen5 software; specifically, the DAPI signal was used as the primary mask to quantify the nuclear TFEB-GFP signal. The cytosolic TFEB-GFP signal was quantified through expanding the primary mask. The TFEB nuclear/cytosol ratios were calculated from nuclear TFEB-GFP signal/cytosol TFEB-GFP signal, which determined the compound efficacy. […] Compound activities (μM) were determined by the minimal compound concentration needed to increase TFEB nuclear/cytosol ratio by 25%. Activity: “−” equals >25 μM; “+” equals between 25 μM and >10 μM; “++” equals between ≤10 μM and >1 μM; and “+++” equals […]. N=4.
(§1) Approximately 2300 primary and immortalized human bronchial epithelial cells (BEAS-2B) stably expressing TFEB-EGFP in 25 μL of HITEs media with 10% FBS were dispensed into 384 well plate (Black with glass bottom) and incubated for 8 hours. Compound serial dilution (DMEM low glucose media with 2% FBS, 25 μL volume) were prepared using a robotic liquid hander. Compound solution were then added to the cell plate and incubated for 18 hours. Cells were then fixed with 4% PFA followed by DAPI staining. TFEB localization was imaged on the GFP channel along with the DAPI signal using a Cytation 5 high content imager. Images were processed through Biotek Gen5 software. Specifically, the DAPI signal was used as the primary mask to quantify the nuclear TFEB-GFP signal. Cytosolic TFEB-GFP signal was quantified through expanding the primary mask. The TFEB nuclear/cytosol ratios were calculated from nuclear TFEB-GFP signal/cytosol TFEB-GFP signal, which determined the compound efficacies.
Compounds efficacies (μM) were determined by the minimal compound concentration needed to increase TFEB nuclear/cytosol ratio by 25%. Activity: “+” equals >25 μM; “++” equals between ≤25 μM and >1 μM; and “+++” equals ≤1 μM.
A high-content imaging screen was conducted using Beas2B cells that stably express GFP-TFEB.

[2] = test system: BEAS-2B cells; assay: Toxicity: compound concentration needed to induce greater than 50 percent of cell loss; assay type: cell-based, human; conditions: 18 hours incubation
Procedure: as §1
Toxicity was determined by determining the compound concentration needed to induce greater than 50 percent of cell loss. For toxicity, cell loss of greater than 50 percent at a concentration that equals or is greater than 25 μM was represented as cell loss of greater than 50 percent at a concentration less than 25 μM and greater than 1 μM was represented as and cell loss of greater than 50 percent at a concentration that equals or is less than 1 μM was represented as “+++.” The assay results for compounds 1-202, 214-248, 332, 333, and 352-402 are shown in Table A.

Row | SMILES | efficacy (minimal compound concentration needed to increase TFEB nuclear/cytosol ratio by 25%) [1] | toxicity (compound concentration needed to induce greater than 50 percent of cell loss) [2]
1 | CC(C)(C)OC(=O)N1CC=C(c2nc(Nc3ccc4[nH]ccc4c3)c3ccccc3n2)CC1 [Compound 88] | + (“+” equals >25 μM) | + (cell loss of greater than 50 percent at a concentration that equals or is greater than 25 μM was represented as)
2 | CC(=O)c1cc(F)cc(Nc2nc(-c3ccncc3)nc3ccccc23)c1 [Compound 51] | + (“+” equals >25 μM) | + (cell loss of greater than 50 percent at a concentration that equals or is greater than 25 μM was represented as)
3 | c1cnc2nc(-c3ccncc3)nc(Nc3ccc4[nH]ccc4c3)c2c1 [Compound 81] | +++ (“+++” equals ≤1 μM) | ++ (cell loss of greater than 50 percent at a concentration less than 25 μM and greater than 1 μM was represented as)
4 | CCN(c1ccc2[nH]ccc2c1)c1nc(-c2ccncc2)nc2ccccc12 [Compound 72] | +++ (“+++” equals ≤1 μM) | +++ (cell loss of greater than 50 percent at a concentration that equals or is less than 1 μM was represented as “+++.”)
5 | Cc1ccc2nc(-c3ccncc3)nc(Nc3ccc4[nH]ccc4c3)c2c1 [Compound 116] | +++ (“+++” equals ≤1 μM) | + (cell loss of greater than 50 percent at a concentration that equals or is greater than 25 μM was represented as)
6 | CC(C)c1nc2ccc(Nc3nc(-c4ccncc4)cc4ncccc34)cc2s1 [Compound 240] | +++ (“+++” equals ≤1 μM) | + (cell loss of greater than 50 percent at a concentration that equals or is greater than 25 μM was represented as)
7 | CCc1nc2ccc(Nc3nc(-c4ccncc4)nc4c(F)cccc34)cc2s1 [Compound 369] | + (“+” equals >25 μM) | + (cell loss of greater than 50 percent at a concentration that equals or is greater than 25 μM was represented as)
8 | c1ccc2c(Nc3ccc4cnsc4c3)nc(-c3cncs3)nc2c1 [Compound 390] | + (“+” equals >25 μM) | + (cell loss of greater than 50 percent at a concentration that equals or is greater than 25 μM was represented as)
9 | CCc1nc2ccc(Nc3nc(-c4ccncc4)nc4ccc(OC)cc34)cc2s1 [Compound 149] | ++ (“++” equals between ≤25 μM and >1 μM) | ++ (cell loss of greater than 50 percent at a concentration less than 25 μM and greater than 1 μM was represented as)
10 | CCc1nc2ccc(Nc3nc(-c4ccncc4)nc4ccc(F)cc34)cc2s1 [Compound 151] | +++ (“+++” equals ≤1 μM) | + (cell loss of greater than 50 percent at a concentration that equals or is greater than 25 μM was represented as)
11 | Cc1cc(F)cc(Nc2nc(N3CCOCC3)nc3ccccc23)c1 [Compound 46] | + (“+” equals >25 μM) | + (cell loss of greater than 50 percent at a concentration that equals or is greater than 25 μM was represented as)
12 | c1ccc2c(Nc3ccc4scnc4c3)nc(-c3ccncc3)nc2c1 [Compound 27] | +++ (“+++” equals ≤1 μM) | + (cell loss of greater than 50 percent at a concentration that equals or is greater than 25 μM was represented as)
13 | Fc1cccc2c(Nc3ccc4nc(C5CC5)sc4c3)nc(-c3ccncc3)nc12 [Compound 373] | ++ (“++” equals between ≤25 μM and >1 μM) | + (cell loss of greater than 50 percent at a concentration that equals or is greater than 25 μM was represented as)
14 | CC(C)c1nc2ccc(Nc3nc(-c4ccncc4)nc4ccccc34)cc2s1 [Compound 94] | +++ (“+++” equals ≤1 μM) | + (cell loss of greater than 50 percent at a concentration that equals or is greater than 25 μM was represented as)
15 | C1=C(c2nc(Nc3ccc4[nH]ncc4c3)c3ccccc3n2)CCNC1 [Compound 75] | + (“+” equals >25 μM) | + (cell loss of greater than 50 percent at a concentration that equals or is greater than 25 μM was represented as)
16 | [O-][n+]1ccc(-c2nc(Nc3ccc4[nH]ccc4c3)c3ccccc3n2)cc1 [Compound 66] | + (“+” equals >25 μM) | + (cell loss of greater than 50 percent at a concentration that equals or is greater than 25 μM was represented as)
17 | COc1ccc2nc(-c3ccncc3)nc(Nc3ccc4[nH]ccc4c3)c2c1 [Compound 113] | +++ (“+++” equals ≤1 μM) | ++ (cell loss of greater than 50 percent at a concentration less than 25 μM and greater than 1 μM was represented as)
18 | c1cnc2nc(-c3ccncc3)nc(Nc3ccc4ncsc4c3)c2c1 [Compound 132] | +++ (“+++” equals ≤1 μM) | + (cell loss of greater than 50 percent at a concentration that equals or is greater than 25 μM was represented as)
19 | c1ccc2c(Nc3ccc4ncncc4c3)nc(-c3ccncc3)nc2c1 [Compound 102] | +++ (“+++” equals ≤1 μM) | + (cell loss of greater than 50 percent at a concentration that equals or is greater than 25 μM was represented as)
20 | CCc1nc2ccc(Nc3nc(-c4ccncc4)nc4ccc(C)cc34)cc2s1 [Compound 147] | ++ (“++” equals between ≤25 μM and >1 μM) | + (cell loss of greater than 50 percent at a concentration that equals or is greater than 25 μM was represented as)
21 | Cn1ncc2cc(Nc3nc(-c4ccncc4)nc4ccccc34)ccc21 [Compound 31] | +++ (“+++” equals ≤1 μM) | +++ (cell loss of greater than 50 percent at a concentration that equals or is less than 1 μM was represented as “+++.”)
22 | c1ccc2c(Nc3ccc4[nH]ncc4c3)nc(N3CCOCC3)nc2c1 [Compound 44] | +++ (“+++” equals ≤1 μM) | + (cell loss of greater than 50 percent at a concentration that equals or is greater than 25 μM was represented as)
23 | c1cnc2ccc(Nc3nc(-c4ccncc4)nc4ncccc34)cc2c1 [Compound 138] | +++ (“+++” equals ≤1 μM) | + (cell loss of greater than 50 percent at a concentration that equals or is greater than 25 μM was represented as)
